# Earlier results in US20050218054A1, “Apparatus for Producing sterilized water” (priority 2002, published 2005).
# Settings: same chlorine concentration
smiles,measurement,value
OCl [hypochlorous acid ion],Sterilization power relative to hypochlorous acid (HOCL),about 1/80
